Laboratory results from paper PMC9134315, “Systemic Administration of a Brain Permeable Cdk5 Inhibitor Alters Neurobehavior” (Frontiers in Pharmacology, 2022).
Where two headings read alike, the source gives them in different places.

Assay: Pharmacokinetic profile in mice after I.V. injection (LC-MS/MS of plasma, brain, liver, kidney)
Assay type: in vivo, mouse
Conditions: for AUC(0-t): read-out: AUC24h; for concentration at 24 h: read-out: Clast; for k el: read-out: Ke (converted)
Procedure: The wild-type group housed male C57BL/6 mice 10–12 weeks of age were used for all in vivo, ex vivo, and behavioral studies. This age range was selected to be consistent with previous studies of conditional Cdk5 knockout mice ([Plattner et al., 2015]). 25–106 was administered in a 20-fold dose range intravenously (I.V.) at 10, 50, 100, and 200 mg/kg for pharmacokinetic studies. This delivery mode was used as I.V. injections to avoid first-pass drug metabolism observed using other injection methods ([Pond and Tozer, 1984]). […] All animal experiments were performed under approved protocols by the University of Alabama at Birmingham (UAB) Institutional Animal Care and Use Committees and in accordance with the guidelines of the Animal Welfare Act and the Guide for the Care and Use of Laboratory Animals.
A quantitative determination of 25–106 in mouse plasma and tissue homogenate was accomplished by the use of protein precipitation and high-performance liquid chromatography with tandem mass spectrometry detection (LC-MS/MS). 5-(N,N-hexamethylene) amiloride (HMA) was used as the internal standard (IS). 25–106 and IS were typically extracted from 50 µL of mouse plasma or tissue homogenate using protein precipitation with methanol. The extracts were analyzed by reverse-phase chromatography using an ACE Excel 3 C18-PFP column under isocratic conditions at a flow rate of 500 μL/min. The column temperature was maintained at 40°C. The mobile phase A consisted of 0.1% formic acid in water, and the mobile phase B was acetonitrile. A triple–quadrupole mass spectrometer (AB Sciex 5,000) equipped with TurboV IonSpray operating in positive-ion mode was used. Column effluents were analyzed by multiple reaction monitoring (MRM). The precursor/product transitions are 346.1 to 137.1 m/z for 25–106 and 312.37 to 129.5 m/z for IS. The calibration curve was fit using weighted (1/x^2) linear regression analysis of the 25–106/IS peak area ratio vs. the 25–106 concentration from 1.0–80.0 ng/ml (ng/g for tissue) for the low curve and 80.0–10,000 ng/ml (ng/g for tissue) for the high curve. The concentrations of incurred and quality control samples were calculated with the same regression analysis, and the results were reported in ng/mL (plasma) or ng/g (tissue) of 25–106.
To assess the pharmacokinetic and pharmacodynamic parameters of 25–106 in vivo, we utilized the LC-MS/MS detection method established above (see Figure 5). The mice were administered IV injections of 25–106 doses of 10, 50, 100, or 200 mg/kg. The animals were euthanized, and organs were harvested at 1, 2, 6, and 24 h post injection. Within the same experiment, tissues were used for biochemical analysis of 25–106 effects on Cdk5 activity (see Figures 3A, B).

[1] = male, C57BL/6, mouse, iv, brain, 10 mg/kg I.V.
[2] = male, C57BL/6, mouse, iv, brain, 50 mg/kg I.V.
[3] = male, C57BL/6, mouse, iv, brain, 100 mg/kg I.V.
[4] = male, C57BL/6, mouse, iv, brain, 200 mg/kg I.V.
[5] = male, C57BL/6, mouse, iv, kidney, 50 mg/kg I.V.
[6] = male, C57BL/6, mouse, iv, kidney, 100 mg/kg I.V.
[7] = male, C57BL/6, mouse, iv, kidney, 200 mg/kg I.V.
[8] = male, C57BL/6, mouse, iv, plasma, 10 mg/kg I.V.
[9] = male, C57BL/6, mouse, iv, plasma, 50 mg/kg I.V.
[10] = male, C57BL/6, mouse, iv, plasma, 100 mg/kg I.V.
[11] = male, C57BL/6, mouse, iv, plasma, 200 mg/kg I.V.

COc1cc(CC(=O)Nc2cc(C3CCC3)[nH]n2)cc(OC)c1OC [25–106, N-(5-cyclobutyl-1H-pyrazol-3-yl)-2-(3,4,5-trimethoxyphenyl)acetamide]
detectability in the brain and plasma (24 h after injection, I.V.): remaining detectable
demethylated metabolites detected (LC-MS/MS, mice): No demethylated metabolite structures
V (brain, 10 mg/kg I.V.): 77.39 ± 25.63 L
V (brain, 50 mg/kg I.V.): 151.24 ± 58.36 L
CL (brain, 50 mg/kg I.V., 50 mg/kg): 16.57 ± 4.19 L/h
V (brain, 100 mg/kg I.V.): 126.99 ± 46.68 L
CL (brain, 100 mg/kg I.V., 100 mg/kg): 17.75 ± 6.77 L/h
V (brain, 200 mg/kg I.V.): 76.07 ± 73.66 L
Clast (kidney, 10 mg/kg I.V.): 163 ± 41.67 ng/mL
Clast (kidney, 50 mg/kg I.V.): 109.33 ± 42.90 ng/mL
V (kidney, 50 mg/kg I.V.): 78.88 ± 16.88 L
Clast (kidney, 100 mg/kg I.V.): 119.88 ± 51.83 ng/mL
V (kidney, 100 mg/kg I.V.): 172.86 ± 89.05 L
Clast (kidney, 200 mg/kg I.V.): 146.45 ± 87.11 ng/mL
V (kidney, 200 mg/kg I.V.): 163.98 ± 55.79 L
Clast (liver, 10 mg/kg I.V.): 85.18 ± 32.60 ng/mL
Clast (liver, 50 mg/kg I.V.): 252.73 ± 200.06 ng/mL
Clast (liver, 100 mg/kg I.V.): 150.9 ± 103.92 ng/mL
Clast (liver, 200 mg/kg I.V.): 310.9 ± 247.48 ng/mL
clearance (male, C57BL/6, mouse, brain, iv, 10 mg/kg, 10 mg/kg I.V.): 66.3 mL/min
Cmax (male, C57BL/6, mouse, brain, iv, 10 mg/kg, brain, 10 mg/kg I.V., read-out: Cmax): 101 ± 23.6 ng/g
clearance (male, C57BL/6, mouse, brain, iv, 50 mg/kg, 50 mg/kg I.V.): 275 mL/min
Cmax (male, C57BL/6, mouse, brain, iv, 50 mg/kg, brain, 50 mg/kg I.V., read-out: Cmax): 118 ± 76.7 ng/g
clearance (male, C57BL/6, mouse, brain, iv, 100 mg/kg, 100 mg/kg I.V.): 295 mL/min
Cmax (male, C57BL/6, mouse, brain, iv, 100 mg/kg, brain, 100 mg/kg I.V., read-out: Cmax): 377 ± 289 ng/g
clearance (male, C57BL/6, mouse, brain, iv, 200 mg/kg, 200 mg/kg I.V.): 188 mL/min
Cmax (male, C57BL/6, mouse, brain, iv, 200 mg/kg, brain, 200 mg/kg I.V., read-out: Cmax): 669 ± 316 ng/g
half-life [1]: 17.2 ± 10.4 h
AUC(0-t) [1]: 80 ± 20 ng·h/mL
concentration at 24 h [1]: 2.27 ± 1.44 ng/mL
k el [1]: 1.67e-05 s⁻¹
half-life [2]: 6.23 ± 1.12 h
AUC(0-t) [2]: 90 ± 30 ng·h/mL
concentration at 24 h [2]: 2.73 ± 1.75 ng/mL
k el [2]: 3.06e-05 s⁻¹
half-life [3]: 5.03 ± 0.69 h
AUC(0-t) [3]: 180 ± 70 ng·h/mL
concentration at 24 h [3]: 2.88 ± 1.16 ng/mL
k el [3]: 3.89e-05 s⁻¹
half-life [4]: 4.39 ± 1.19 h
AUC(0-t) [4]: 960 ± 860 ng·h/mL
concentration at 24 h [4]: 14 ± 14.5 ng/mL
k el [4]: 4.72e-05 s⁻¹
AUC(0-t) (male, C57BL/6, mouse, iv, kidney, 10 mg/kg I.V.): 6300 ± 1690 ng·h/mL
half-life [5]: 10.2 ± 2.99 h
AUC(0-t) [5]: 7640 ± 1280 ng·h/mL
k el [5]: 1.94e-05 s⁻¹
half-life [6]: 13 ± 4.56 h
AUC(0-t) [6]: 9420 ± 3060 ng·h/mL
k el [6]: 1.67e-05 s⁻¹
half-life [7]: 9.65 ± 5.34 h
AUC(0-t) [7]: 14400 ± 4630 ng·h/mL
k el [7]: 2.5e-05 s⁻¹
AUC(0-t) (male, C57BL/6, mouse, iv, liver, 10 mg/kg I.V.): 3080 ± 1010 ng·h/mL
AUC(0-t) (male, C57BL/6, mouse, iv, liver, 50 mg/kg I.V.): 2760 ± 980 ng·h/mL
AUC(0-t) (male, C57BL/6, mouse, iv, liver, 100 mg/kg I.V.): 3320 ± 1280 ng·h/mL
AUC(0-t) (male, C57BL/6, mouse, iv, liver, 200 mg/kg I.V.): 5440 ± 1950 ng·h/mL
half-life [8]: 6.5 ± 2.36 h
AUC(0-t) [8]: 5710 ± 2260 ng·h/mL
concentration at 24 h [8]: 16.3 ± 7 ng/mL
k el [8]: 3.06e-05 s⁻¹
half-life [9]: 7.48 ± 0.41 h
AUC(0-t) [9]: 6930 ± 930 ng·h/mL
concentration at 24 h [9]: 69.7 ± 16.2 ng/mL
k el [9]: 2.5e-05 s⁻¹
half-life [10]: 8.37 ± 1.77 h
AUC(0-t) [10]: 8380 ± 780 ng·h/mL
concentration at 24 h [10]: 79.2 ± 16 ng/mL
k el [10]: 2.5e-05 s⁻¹
half-life [11]: 11 ± 6.38 h
AUC(0-t) [11]: 12000 ± 1740 ng·h/mL
concentration at 24 h [11]: 149 ± 94.1 ng/mL
k el [11]: 2.22e-05 s⁻¹
Cmax (male, C57BL/6, mouse, kidney, iv, 10 mg/kg, kidney, 10 mg/kg I.V., read-out: Cmax): 2950 ng/g
clearance (male, C57BL/6, mouse, kidney, iv, 50 mg/kg, 50 mg/kg I.V.): 92.5 mL/min
Cmax (male, C57BL/6, mouse, kidney, iv, 50 mg/kg, kidney, 50 mg/kg I.V., read-out: Cmax): 1190 ng/g
clearance (male, C57BL/6, mouse, kidney, iv, 100 mg/kg, 100 mg/kg I.V.): 154 mL/min
Cmax (male, C57BL/6, mouse, kidney, iv, 100 mg/kg, kidney, 100 mg/kg I.V., read-out: Cmax): 2580 ng/g
clearance (male, C57BL/6, mouse, kidney, iv, 200 mg/kg, 200 mg/kg I.V.): 227 mL/min
Cmax (male, C57BL/6, mouse, kidney, iv, 200 mg/kg, kidney, 200 mg/kg I.V., read-out: Cmax): 4660 ng/g
Cmax (male, C57BL/6, mouse, liver, iv, 10 mg/kg, liver, 10 mg/kg I.V., read-out: Cmax): 1760 ± 526 ng/g
Cmax (male, C57BL/6, mouse, liver, iv, 50 mg/kg, liver, 50 mg/kg I.V., read-out: Cmax): 513 ± 22 ng/g
Cmax (male, C57BL/6, mouse, liver, iv, 100 mg/kg, liver, 100 mg/kg I.V., read-out: Cmax): 868 ± 378 ng/g
Cmax (male, C57BL/6, mouse, liver, iv, 200 mg/kg, liver, 200 mg/kg I.V., read-out: Cmax): 2810 ng/g
clearance (male, C57BL/6, mouse, plasma, iv, 10 mg/kg, 10 mg/kg I.V.): 1 mL/min
Cmax (male, C57BL/6, mouse, plasma, iv, 10 mg/kg, plasma, 10 mg/kg I.V., read-out: Cmax): 2570 ng/mL
clearance (male, C57BL/6, mouse, plasma, iv, 50 mg/kg, 50 mg/kg I.V.): 3.33 mL/min
Cmax (male, C57BL/6, mouse, plasma, iv, 50 mg/kg, plasma, 50 mg/kg I.V., read-out: Cmax): 1380 ng/mL
clearance (male, C57BL/6, mouse, plasma, iv, 100 mg/kg, 100 mg/kg I.V.): 5.33 mL/min
Cmax (male, C57BL/6, mouse, plasma, iv, 100 mg/kg, plasma, 100 mg/kg I.V., read-out: Cmax): 2580 ng/mL
clearance (male, C57BL/6, mouse, plasma, iv, 200 mg/kg, 200 mg/kg I.V.): 7.17 mL/min
Cmax (male, C57BL/6, mouse, plasma, iv, 200 mg/kg, plasma, 200 mg/kg I.V., read-out: Cmax): 2320 ng/mL
V (plasma, 10 mg/kg I.V.): 0.49 ± 0.08 L
V (plasma, 50 mg/kg I.V.): 2.14 ± 0.34 L
V (plasma, 100 mg/kg I.V.): 3.85 ± 0.55 L
Cmax (plasma, 100 mg/kg I.V., 100 mg/kg): 2,577.50 ± 1,004.73 Ng/ml
V (plasma, 200 mg/kg I.V.): 6.12 ± 2.08 L
Cmax (plasma, 200 mg/kg I.V., 200 mg/kg): 2,322.50 ± 972.71 Ng/ml
